Results as given in patent US7776873B2, “Method for treating damage to gastric mucosa” (Yuhan Corporation, priority 2005, dated 2010).

Columns and labels:
[1] = tested on: human gastric epithelial (AGS) cells infected with H. pylori (ATCC 43504); test: Incidence of H. pylori-induced cell death (MTT assay-1); type: cell-based; details: 50 uM pretreatment for 16 hours, then 48-hour H. pylori infection, FIG. 1
Procedure: In order to determine cytoprotective properties of revaprazan against H. pylori infection, gastric mucosal cells were pretreated with revaprazan and rebamipide prior to H. pylori infection, and the incidence of cell death was measured. Rebamipide, known to have cytoprotective properties, was used as a control drug.
The human gastric epithelial (AGS, KCLB 21739) cells were seeded onto 96-well plate at 5×10^4 cells/ml and cultured in RPMI 1640 (Gibco BRL, Grand Island, N.Y., U.S.A.), supplemented with 100 units/mL penicillin, 100 ug/mL streptomycin, and 10% FBS (Fetal Bovine Serum). Revaprazan and rebamipide, dissolved in sterilized water, were added to AGS cells to reach a final concentration of 50 uM and the cells were incubated at 37° C. for 16 hours. To remove RPMI 1640 media, the plate was centrifuged at 24° C., 3000 rpm for 5 minutes and washed three times with PBS (137 mM NaCl, 2.7 mM KCl, 10 mM Na2HPO4, and 2 mM KH2PO4). For inoculation, H. pylori (ATCC 43504) cultures were resuspended in PBS and cocultured with AGS cells at a final concentration of 5×10^8 CFU/ml. After 48 hours of incubation at 37° C., the culture was centrifuged at 24° C., 3000 rpm for 5 minutes to remove the culture medium, i.e., RPMI 1640, and then total viable cell numbers were assessed by MTT (3-[4,5-dimethylthiazol-2-yl]-2,5-diphenyl tetrazolim bromide) assay method. 1 mg/ml of an MTT solution prepared by dissolving MTT (Amresco, Ohio, U.S.A.) in PBS (137 mM NaCl, 2.7 mM KCl, 10 mM Na2HPO4, and 2 mM KH2PO4) was added to each well (50 μl/well), followed by incubation at 37° C. for 4 hours. The supernatant was then removed by centrifugation at 24° C., 3000 rpm for 5 minutes and the formazan grains formed by the viable cells were dissolved in 99.5% dimethyl sulfoxide (DMSO) (Kanto, Tokyo, Japan) (50 μl/well), and the optical intensity was measured at 540 nm using an ELISA reader (TECAN, Maennedorf, Switzerland).

[2] = tested on: rat gastric mucosal (RGM-1) cells; test: Incidence of ethanol-induced cell death (MTT assay-2); type: cell-based; details: 50 uM pretreatment for 16 hours, then 200 mM ethanol for 16 hours, FIG. 2
Procedure: The rat gastric mucosal (RGM-1, RIKEN cell bank, Japan) cells were seeded onto 96-well plate at 5×10^4 cells/ml and cultured in DMEM-F12 (Gibco BRL, Grand Island, N.Y., U.S.A.), supplemented with 100 units/mL penicillin, 100 ug/mL streptomycin, and 10% FBS (Fetal Bovine Serum). […] To remove DMEM-F12 media, the plate was centrifuged at 24° C., 3000 rpm for 5 minutes and washed three times with PBS (137 mM NaCl, 2.7 mM KCl, 10 mM Na2HPO4, and 2 mM KH2PO4). Then, ethanol-containing media (200 mM ethanol-containing DMEM-F12, supplemented with 100 units/mL penicillin, 100 ug/mL streptomycin, and 10% FBS) was added to the cells, and the cells were cultured at 37° C. for 16 hours. After the incubation, the culture was centrifuged at 24° C., 3000 rpm for 5 minutes to remove the culture medium and then total viable cell numbers were assessed by MTT (3-[4,5-dimethylthiazol-2-yl]-2,5-diphenyl tetrazolim bromide) assay method. 1 mg/ml of an MTT solution prepared by dissolving MTT (Amresco, Ohio, U.S.A.) in PBS (137 mM NaCl, 2.7 mM KCl, 10 mM Na2HPO4, and 2 mM KH2PO4) was added to each well (50 μl/well), followed by incubation at 37° C. for 4 hours. The supernatant was then removed by centrifugation at 24° C., 3000 rpm for 5 minutes and the formazan grains formed by the viable cells were dissolved in 99.5% dimethylsulfoxide (DMSO) (Kanto, Tokyo, Japan) (50 μl/well), and the optical intensity was measured at 540 nm using an ELISA reader (TECAN, Maennedorf, Switzerland).

[3] = tested on: indomethacin-induced gastric mucosal lesions; test: Preventive effect on NSAID-induced gastropathy; type: in vivo, Sprague Dawley male rats; details: rats, oro-gastric pretreatment (revaprazan 5, 10 mg/kg; rebamipide 30 mg/kg; omeprazole 5 mg/kg) prior to indomethacin 40 mg/kg for 12 hrs, FIG. 8
Procedure: Six-week old specific-pathogen-free (SPF) Sprague Dawley male rats (Charles River, Tokyo, Japan) were used for experiments. The rats were fed a sterilized commercial pellet diet (Biogenomics Co., Seoul, Korea), given sterile water ad libitum, and housed in air-conditioned biohazard room with a 12-h light:12-h dark cycle. The rats were food-deprived 24 hours, and then administered with 5, 10 mg/kg revaprazan, 30 mg/kg rebamipide and 5 mg/kg omeprazole suspended in 0.5% CMC (carboxymethylcellulose) via oro-gastric tube prior to exposure to indomethacin (40 mg/kg for 12 hrs). Phosphate-buffered saline was perfused into the gastric lumen of the rats to swell the stomachs. Then, the stomachs were opened by an incision along the greater curvature, and the total area of the gastric mucosal lesions was calculated to obtain the average size of the lesions.

In the case of `O=C(NC(Cc1cc(=O)[nH]c2ccccc12)C(=O)O)c1ccc(Cl)cc1` (stereo not drawn) [rebamipide, reference compound], the “gastric mucosal cytotoxicity by H. pylori infection” value [1] was “significantly reduced”, the “ethanol-induced gastric mucosal cytotoxicity” value [2] was “significantly reduced” and the “hemorrhagic gastric mucosal lesions after pretreatment” value [3] was “hemorrhagic lesions are observed”.
